# Measurements: PubChem BioAssay (NCI)
# Values joined by “and” are separate entries in the source; they are usually repeats but may differ in a detail not shown here. Identical values can stand only once.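 All cell lines were grown in 96-well plates and treated with compound for 48 hours. GI50: concentration for 50% inhibition of growth. Definition used: TGI = concentration required for complete inhibition of growth.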
# Columns and labels:
# Experiment in all cases: growth of human tumour cells (NCI), 48 h
# MDA-MB-231 breast = system: MDA-MB-231 breast
# MCF7 breast = system: MCF7 breast
# BT-549 breast = system: BT-549 breast
# SW-620 colon = system: SW-620 colon
# TK-10 renal = system: TK-10 renal
# NCI-H460 lung = system: NCI-H460 lung
# DU-145 prostate = system: DU-145 prostate
# T-47D breast = system: T-47D breast
# SR leukemia = system: SR leukemia
# A498 renal = system: A498 renal
Compound,GI50 (MDA-MB-231 breast) [µM],TGI (MDA-MB-231 breast),GI50 (MCF7 breast) [µM],TGI (MCF7 breast) [µM],GI50 (BT-549 breast) [µM],TGI (BT-549 breast),GI50 (SW-620 colon) [µM],TGI (SW-620 colon),GI50 (TK-10 renal) [µM],TGI (TK-10 renal),GI50 (NCI-H460 lung) [µM],TGI (NCI-H460 lung) [µM],GI50 (DU-145 prostate) [µM],TGI (DU-145 prostate),GI50 (T-47D breast) [µM],TGI (T-47D breast),GI50 (SR leukemia) [µM],TGI (SR leukemia) [µM],GI50 (A498 renal) [µM],TGI (A498 renal)
Cc1cc(CCl)c(C)cc1CCl,4.08,18.6 µM,0.281,2.32,4.34,18.9 µM,1.34,5.74 µM,1.97,5.05 µM,0.12,1.43,0.733,2.92 µM,0.733,2.31 µM,0.114,8.83,1.79,3.96 µM
COc1ccc2c(c1)CN([C@@H](C)[C@H]1CC[C@H]3[C@@H]4CC[C@H]5C[C@@H](O)CC[C@]5(C)[C@H]4CC[C@]13C)CO2,–,5.19 µM,–,11.8,–,14.4 µM,–,> 23.6 µM,–,8.32 µM,–,2.47,–,13.7 µM,–,18.3 µM,–,2.61,–,3.45 µM
C=C1C(=O)O[C@H]2[C@H]1CC/C(COC(=O)N[C@H]1C[C@H](O[C@H]3C[C@](O)(C(=O)CO)Cc4c(O)c5c(c(O)c43)C(=O)c3c(OC)cccc3C5=O)O[C@@H](C)[C@H]1O)=C\CC[C@@]1(C)O[C@@H]21,3.21,10.7 µM,1.86,9.86,2.4,9.24 µM,1.15,3 µM,9,> 50 µM,9.02,> 50,12.1,> 50 µM,2.27,10.4 µM,1.02,7.12,6.85,29.4 µM
CC(NC(=O)Cc1ccc(C(F)(F)P(=O)(OCc2ccc([N+](=O)[O-])o2)N(C)CCCCCl)cc1)c1ccc(OCC2CCCCC2)c(C(N)=O)c1 (stereo unspecified),15.7,35.3 µM,6.53,41.4,5.27,13.5 µM,6.82,15.8 µM,8.01,22.2 µM,8.26,26.2,6.2,16.7 µM,4.33,15 µM,1.76,5.03,1.17,24 µM
CCN1[C@@H](C(=O)NC23CCC(C(=O)O)(CC2)CC3)[C@H](c2cccc(Cl)c2F)[C@]2(C(=O)Nc3cc(Cl)ccc32)C12CCCCC2,5.85,27.4 µM,0.0523,3.97,2.28,5.54 µM,3.92,17.1 µM,3.05,16.2 µM,0.0909,1.45,5.47,18.5 µM,3.13,19.4 µM,0.0146,4.72,0.281,3.37 µM
CCCC1(CN2c3ccccc3Sc3ccc(Cl)cc32)CCN(CC)C1 (stereo unspecified),1.88,3.55 µM,1.86,3.5,1.8,3.37 µM,1.7,3.31 µM,1.7,3.32 µM,1.94,3.67,1.81,3.37 µM,2.21,5.03 µM,3.17,> 100,1.6,3.12 µM
CCCCCCNCCCNc1c2cc(OC)ccc2nc2cccc([N+](=O)[O-])c12,0.247,0.481 µM and 1.02 µM,0.0348,0.398,1.04,2.3 µM and 2.27 µM,0.132,4.19 µM and 1.3 µM,0.322,0.387 µM and 0.875 µM,0.0337,0.183,0.162,0.338 µM and 1.36 µM,0.35,0.931 µM and 2.49 µM,0.121,–,0.227,3.6 µM and 0.462 µM
COc1cccc(CNc2ncnc3c2ncn3C2OC(CO)C(O)C2O)c1O (stereo unspecified),0.0302,0.111 µM,0.369,> 100,0.0205,0.0978 µM,0.159,> 100 µM,0.058,1.38 µM,0.931,> 100,0.0733,1.22 µM,0.0549,–,0.0651,–,0.205,2.21 µM
c1ccc(-c2nc3n(c2-c2ccc4c(c2)OCO4)CCC3)nc1,4.25,> 25 µM,7.89,> 21.3,10,> 25 µM,8.47,> 25 µM,1.41,> 23.6 µM,4.51,13.3,7.22,> 25 µM,7.99,> 23.4 µM,9.49,> 25,5.76,20.6 µM
O=C1/C(=C\c2ccco2)Oc2ccccc21,–,> 100 µM,–,> 100,–,> 100 µM,–,> 100 µM,–,> 100 µM,–,> 100,–,> 100 µM,–,> 100 µM,–,> 100,–,> 100 µM
CSc1ncnc2c1ncn2CC(=O)C1CCC2C3CCC4=CC(=O)CCC4(C)C3CCC12C (stereo unspecified),–,27.7 µM,–,14.9,–,9.89 µM,–,> 100 µM,–,30.1 µM,–,18.9,–,> 96.7 µM,–,5.63 µM,–,5.56,–,38.4 µM
COc1cc(F)ccc1-c1cc(Nc2cc(CS(C)(=N)=O)ccn2)ncc1F (stereo unspecified),0.0974,> 100 µM,0.0391,> 100,0.0739,2.06 µM,0.0559,> 33.1 µM,0.151,> 100 µM,0.0593,> 100,0.0773,> 100 µM,0.121,–,0.0174,1.29,0.0713,0.392 µM
Cn1cc(-c2cc(-c3cn(C)c4ccc(Cl)cc34)[nH]n2)c2cc(Cl)ccc21,2.95,15.1 µM,2.64,6.89,2.03,5.24 µM,3.52,14.6 µM,5.16,23.7 µM,2.35,5.47,9.6,> 100 µM,4.06,20.7 µM,2.36,7.71,2.44,9.79 µM
CO[C@H]1/C=C/O[C@@]2(C)Oc3c(C)c(O)c4c(O)c(c(/C=N/N5CCN(C)CC5)c(O)c4c3C2=O)NC(=O)/C(C)=C\C=C\[C@H](C)[C@H](O)[C@@H](C)[C@@H](O)[C@@H](C)[C@H](OC(C)=O)[C@@H]1C,–,> 100 µM,–,> 100,–,> 100 µM,–,> 100 µM,–,> 100 µM,–,> 100,–,> 100 µM,–,> 100 µM,–,52.6,–,> 100 µM
CCSc1ccc([C@@H]2[C@@H](O)C(=O)N2c2cc(OC)c(OC)c(OC)c2)cc1,0.0395,29.4 µM,< 0.01,15.7,0.0264,0.503 µM,< 0.0121,> 100 µM,17.7,84.1 µM,< 0.0138,11.9,0.0252,> 50.3 µM,14.2,45.8 µM,< 0.01,17.4,< 0.01,0.829 µM
COc1ccc(C(=O)c2sc3nc(-c4ccccc4OC)ccc3c2N)cc1OC,3.44,42.3 µM,4.75,> 100,3.14,17 µM,> 100,> 100 µM,4.87,33.4 µM,9.61,> 100,27.9,> 100 µM,2.95,> 100 µM,7.3,> 100,3.38,> 100 µM
